{
  "source": "patent US20060239988A1",
  "about": "“Neuronal regeneration and compound administration methods” (priority 2003, published 2006)",
  "key": {"[1]": {"test_system": "importin-beta", "details": "CHX 10 micrograms/ml, ActD 5 micrograms/ml", "description": "Electrophoretic gel autoradiography: In order to evaluate whether importin-beta is synthesized in axons, sciatic nerve segments were incubated for 6 hours in Met/Cys-deficient DMEM medium (Gibco-BRL) containing 1 mCi/ml of [35]S-Met/Cys (Amersham Bioscience), with or without 10 micrograms/ml of the translation inhibitor cycloheximide (CHX, Sigma) or 5 micrograms/ml of the transcription inhibitor actinomycin D (ActD, Sigma), followed by extrusion of the axoplasm into nuclear transport buffer. The extruded axoplasm was immunoprecipitated with anti importin-beta antibody, and the immunoprecipitate was resolved via 10% SDS-PAGE. Following electrophoresis, the gel was dried and analyzed via autoradiography using FujiFilm BAS2500."}, "[2]": {"test_system": "vimentin and peripherin", "details": "calpeptin 100 micromolar applied to the nerve by injection"}, "[3]": {"biological_target": "pERK with vimentin (Homo sapiens, UniProt P28482)", "sequence (P28482 2-360)": "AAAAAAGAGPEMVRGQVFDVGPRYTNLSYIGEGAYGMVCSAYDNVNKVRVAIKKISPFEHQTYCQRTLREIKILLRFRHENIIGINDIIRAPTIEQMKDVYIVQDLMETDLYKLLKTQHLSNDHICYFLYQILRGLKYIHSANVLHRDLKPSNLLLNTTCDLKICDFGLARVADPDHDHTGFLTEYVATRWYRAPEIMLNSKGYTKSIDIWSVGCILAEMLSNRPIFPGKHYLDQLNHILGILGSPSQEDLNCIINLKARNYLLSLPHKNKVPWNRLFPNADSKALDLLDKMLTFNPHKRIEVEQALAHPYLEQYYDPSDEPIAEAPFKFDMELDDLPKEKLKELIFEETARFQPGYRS", "details": "EGTA 100 millimolar", "description": "(§1) Pull-down assays and co-immunoprecipitations: Sciatic nerve axoplasm (500 micrograms) was pre-cleared for 1 hour with 80% protein G-Sepharose (Amersham Bioscience). Following overnight incubation with primary antibody, complexes were incubated on protein-G beads for 2 hours, washed extensively and eluted by boiling in SDS-PAGE sample buffer before loading on gels for Western blot analysis. For co-immunoprecipitation in the presence of competitors, 2 micromolar NLS (SEQ ID NO: 2) or reverse-NLS (SEQ ID NO: 3) peptide was added to the axoplasm for overnight incubation at 4 degrees centigrade. For direct pull-downs, GST-pERK (0.5 microgram) or importin-beta (1 microgram) was equilibrated in PBS or NTB and added to 500 microgram aliquots of axoplasm from different post-lesion times. […] All pull-downs were washed twice with 0.2 molar NaCl in PBS or NTB and twice again with PBS or NTB before elution in SDS-PAGE sample buffer for loading on gels."}, "[4]": {"biological_target": "pERK (Homo sapiens, UniProt P28482)", "sequence (P28482 whole entry)": "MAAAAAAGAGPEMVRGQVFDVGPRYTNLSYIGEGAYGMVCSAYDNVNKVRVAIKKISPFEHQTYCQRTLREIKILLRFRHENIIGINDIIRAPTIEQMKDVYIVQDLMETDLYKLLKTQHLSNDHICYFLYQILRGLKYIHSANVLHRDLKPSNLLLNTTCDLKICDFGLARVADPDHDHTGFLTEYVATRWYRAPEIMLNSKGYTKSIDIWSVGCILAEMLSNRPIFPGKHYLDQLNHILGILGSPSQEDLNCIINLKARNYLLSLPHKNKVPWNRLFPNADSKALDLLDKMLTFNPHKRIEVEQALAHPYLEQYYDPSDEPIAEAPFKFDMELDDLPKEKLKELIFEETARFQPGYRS", "sequence (Q14974 whole entry partner)": "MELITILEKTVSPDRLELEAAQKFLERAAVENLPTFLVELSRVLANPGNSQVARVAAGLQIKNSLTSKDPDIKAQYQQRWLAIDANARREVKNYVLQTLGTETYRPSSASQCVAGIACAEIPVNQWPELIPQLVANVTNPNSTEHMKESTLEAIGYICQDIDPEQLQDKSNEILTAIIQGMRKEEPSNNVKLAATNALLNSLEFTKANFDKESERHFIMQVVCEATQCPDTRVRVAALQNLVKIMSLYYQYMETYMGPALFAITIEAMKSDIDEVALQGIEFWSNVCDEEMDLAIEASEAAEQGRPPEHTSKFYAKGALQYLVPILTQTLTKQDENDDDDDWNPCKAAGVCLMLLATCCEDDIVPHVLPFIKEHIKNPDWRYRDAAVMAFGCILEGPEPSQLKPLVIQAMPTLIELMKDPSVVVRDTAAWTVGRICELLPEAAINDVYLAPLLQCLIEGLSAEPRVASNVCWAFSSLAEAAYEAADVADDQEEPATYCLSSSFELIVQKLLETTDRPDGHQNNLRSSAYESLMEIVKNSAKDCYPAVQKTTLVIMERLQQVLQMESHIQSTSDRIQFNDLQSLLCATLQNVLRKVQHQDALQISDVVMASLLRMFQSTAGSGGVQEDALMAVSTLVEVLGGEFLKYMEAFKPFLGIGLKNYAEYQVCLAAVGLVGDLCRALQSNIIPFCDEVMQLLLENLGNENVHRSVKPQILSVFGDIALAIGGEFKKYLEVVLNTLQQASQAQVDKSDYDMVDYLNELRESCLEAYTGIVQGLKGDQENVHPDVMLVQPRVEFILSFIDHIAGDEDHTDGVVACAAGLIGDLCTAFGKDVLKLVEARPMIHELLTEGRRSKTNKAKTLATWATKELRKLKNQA", "sequence (P02544 whole entry partner)": "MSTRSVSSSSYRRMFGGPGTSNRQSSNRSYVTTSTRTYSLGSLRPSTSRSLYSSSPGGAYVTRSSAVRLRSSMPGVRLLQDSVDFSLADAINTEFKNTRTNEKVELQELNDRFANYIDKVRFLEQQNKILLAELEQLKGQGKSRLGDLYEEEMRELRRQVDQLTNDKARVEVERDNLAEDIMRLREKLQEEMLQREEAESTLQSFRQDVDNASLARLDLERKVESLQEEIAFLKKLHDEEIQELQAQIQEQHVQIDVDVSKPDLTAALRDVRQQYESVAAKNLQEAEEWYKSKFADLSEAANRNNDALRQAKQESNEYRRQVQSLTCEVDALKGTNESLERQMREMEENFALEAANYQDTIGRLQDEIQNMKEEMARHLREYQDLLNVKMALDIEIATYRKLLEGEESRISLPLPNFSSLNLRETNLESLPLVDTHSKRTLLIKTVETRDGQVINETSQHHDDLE", "description": "(§2) Alkaline phosphatase (AP; 2 units; Roche, Mannheim, Germany) or axoplasm from injured nerve (100 micrograms) was then added for an additional 30 minutes. Complexes were purified over Nickel-NTA-Agarose followed by Western blot analysis for pERK. Alkaline phosphatase activity was verified with the synthetic substrate p-nitrophenyl phosphate (pNPP, Catalog # S0942, Sigma) dissolved in 0.1 molar glycine buffer (0.1 molar glycine, 1 millimolar MgCl2, 1 millimolar ZnCl2; pH 10.4) for a stock solution of 1 mg/ml. […] The yellow hydrolysis product was quantified spectrophotometrically at 405 nm."}, "[5]": {"test_system": "alkaline phosphatase", "details": "identical concentrations of vimentin", "description": "as §2"}, "[6]": {"biological_target": "importin-beta (Homo sapiens, UniProt Q14974)", "sequence (Q14974 whole entry)": "as the sequence (Q14974 whole entry partner) above", "sequence (P02544 whole entry partner)": "as the sequence (P02544 whole entry partner) above", "description": "GST alone was used as a negative control.\nas §1"}, "[7]": {"biological_target": "pERK2 (Homo sapiens, UniProt P28482)", "sequence (P28482 whole entry)": "as the sequence (P28482 whole entry) above", "sequence (P02544 whole entry partner)": "as the sequence (P02544 whole entry partner) above", "details": "in-vitro, increased at calcium up to 1 millimolar", "description": "as §1"}},
  "data": [
    {"compound": "C[C@@H]1C[C@@H]([C@H](O)CC2CC(=O)NC(=O)C2)C(=O)[C@@H](C)C1", "note": "[CHX, cycloheximide]", "values": [
      {"measurement": "formation of radioactive importin-beta protein", "setting": "[1]", "value": "not formed"}
    ]},
    {"compound": "CCCC[C@@H](C=O)NC(=O)[C@H](CC(C)C)NC(=O)OCc1ccccc1", "note": "[calpeptin]", "values": [
      {"measurement": "lower molecular mass bands of vimentin and peripherin", "setting": "[2]", "value": "disappeared"}
    ]},
    {"compound": "EGTA", "values": [
      {"measurement": "interaction of GST-pERK with vimentin in axoplasm", "setting": "[3]", "value": "blocked"}
    ]},
    {"compound": "actinomycin D [ActD]", "values": [
      {"measurement": "formation of radioactive importin-beta protein", "setting": "[1]", "value": "merely reduced"}
    ]},
    {"compound": "vimentin", "values": [
      {"measurement": "calcium dependence of protection of pERK2 from dephosphorylation", "setting": "[4]; 2 micrograms vimentin, varied calcium", "value": "calcium dependent manner"},
      {"measurement": "protection of pERK2 from the phosphatases", "setting": "[4]; three-fold to six-fold molar ratio to pERK, alkaline phosphatase or axoplasm", "value": "almost complete protection"},
      {"measurement": "hydrolysis of p-nitrophenyl phosphate by alkaline phosphatase", "setting": "[5]", "value": "no effect"},
      {"measurement": "effect of changing calcium concentrations on the vimentin-importin-beta interaction", "setting": "[6]", "value": "little or no effect"},
      {"measurement": "pull-down with GST-importin-beta", "setting": "[6]; did not precipitate with GST alone", "value": "readily pulled down"},
      {"measurement": "vimentin binding to pERK2", "setting": "[7]", "value": "calcium dependent"}
    ]}
  ]
}
